Data published in ChEMBL document CHEMBL5055671, “Targeting a Novel KRAS Binding Site: Application of One-Component Stapling of Small (5-6-mer) Peptides” (J Med Chem, 2021).

Experiments:
[1] = system: GTPase KRas (Homo sapiens), P01116 [G12V]; assay: Inhibition of alexa fluor 647-labeled kinase tracer 314 binding to biotinylated-KRAS G12V mutant (unknown origin) at 100 uM measured after 60 mins by HTRF competition binding assay
GTPase KRas = GTPase KRas (Homo sapiens, UniProt P01116, G12V); assay: Inhibition of alexa fluor 647-labeled kinase tracer 314 binding to biotinylated-KRAS G12V mutant (unknown origin) measured after 60 mins by HTRF competition binding assay; conditions: read-out: IC50
[2] = Inhibition of GDP-tagged biotinylated KRas G12C mutant (unknown origin)/GST-Raf (unknown origin) assessed as SOS-mediated nucleotide exchange measured after 1 hr by HRTF assay; parameters: species or system Homo sapiens

For `CC[C@H](C)[C@@H]1NC(=O)[C@@H]2CCCN2C(=O)[C@H](C)NC(=O)CCC/C=C/COC[C@@H](C(=O)N[C@@H](CC(C)C)C(N)=O)NC1=O`, the inhibition [1] was 5% and the IC50 (GTPase KRas) was > 100 µM.

In the case of `CC[C@H](C)[C@@H]1NC(=O)[C@@H]2CCCN2C(=O)CNC(=O)CCCn2nncc2COC[C@@H](C(=O)N[C@@H](CC(C)C)C(N)=O)NC1=O`, the inhibition [1] is reported as 39% and the IC50 (GTPase KRas) is reported as > 100 µM.

With `CC[C@H](C)[C@@H]1NC(=O)[C@@H]2CCCN2C(=O)[C@H](C)NC(=O)CCCC#CC#CCOC[C@@H](C(=O)N[C@@H](CC(C)C)C(N)=O)NC1=O` the inhibition [1] was 0% and the IC50 (GTPase KRas) was > 100 µM.

With `CC[C@H](C)[C@@H]1NC(=O)[C@@H]2CCCN2C(=O)[C@H](Cc2ccccc2)NC(=O)CCCc2cn(nn2)CC[C@@H](C(=O)N[C@@H](CC(C)C)C(N)=O)NC1=O` the inhibition [1] was 9%, the IC50 [2] was > 30 µM and the IC50 (GTPase KRas) was > 100 µM.

With `CC[C@H](C)[C@@H]1NC(=O)[C@@H]2CCCN2C(=O)CNC(=O)CCCc2cnnn2CC[C@@H](C(=O)N[C@@H](CC(C)C)C(N)=O)NC1=O` the inhibition [1] was 22% and the IC50 (GTPase KRas) was > 100 µM.

For `CC[C@H](C)[C@@H]1NC(=O)[C@@H]2CCCN2C(=O)[C@H](Cc2ccc(O)cc2)NC(=O)CCc2cnnn2CC[C@@H](C(=O)N[C@@H](CC(C)C)C(N)=O)NC1=O`, the inhibition [1] was 44% and the IC50 (GTPase KRas) was > 100 µM.

For `CC[C@H](C)[C@@H]1NC(=O)[C@@H]2CCCN2C(=O)[C@H](Cc2ccc(O)cc2)NC(=O)CCCCn2nncc2CSC[C@@H](C(=O)N[C@@H](CC(C)C)C(N)=O)NC1=O`, the inhibition [1] was 20%, the IC50 [2] was > 30 µM and the IC50 (GTPase KRas) was > 100 µM.

Work on `CC(C)C[C@H](NC(=O)[C@@H]1COCc2cnnn2CCCC(=O)NCC(=O)N2CCC[C@H]2C(=O)N[C@@H](Cc2cccc3ccccc23)C(=O)N1)C(N)=O` yielded an IC50 [2] of 4.1 µM and an IC50 (GTPase KRas) of 10 µM.

In the case of `CC[C@H](C)[C@@H]1NC(=O)[C@@H]2CCCN2C(=O)CNC(=O)CCCc2cnnn2C[C@@H](C(=O)N[C@@H](CC(C)C)C(N)=O)NC1=O`, the inhibition [1] is reported as 16% and the IC50 (GTPase KRas) is reported as > 100 µM.

For `CC[C@H](C)[C@@H]1NC(=O)[C@@H]2CCCN2C(=O)[C@H](Cc2ccc(O)cc2)NC(=O)CCCCn2nncc2COC[C@@H](C(=O)N[C@@H](CC(C)C)C(N)=O)NC1=O`, the inhibition [1] was 28%, the IC50 [2] was > 30 µM and the IC50 (GTPase KRas) was > 100 µM.

For `CC[C@H](C)[C@@H]1NC(=O)[C@@H]2CCCN2C(=O)[C@H](Cc2ccc(O)cc2)NC(=O)CCCCn2cc(nn2)CSC[C@@H](C(=O)N[C@@H](CC(C)C)C(N)=O)NC1=O`, the inhibition [1] was 0%, the IC50 [2] was > 30 µM and the IC50 (GTPase KRas) was > 100 µM.

`CC(C)C[C@H](NC(=O)[C@@H]1COCc2cnnn2CCCCC(=O)NCC(=O)N2CCCC[C@H]2C(=O)N[C@@H](Cc2cccc3ccccc23)C(=O)N1)C(N)=O` showed an IC50 [2] of 2.4 µM and an IC50 (GTPase KRas) of 7.7 µM.

In the case of `CC(C)C[C@H](NC(=O)[C@@H]1COCc2cnnn2CC(=O)NCC(=O)N2CCC[C@H]2C(=O)N[C@@H](Cc2cccc3ccccc23)C(=O)N1)C(N)=O`, the IC50 [2] is reported as 3.2 µM and the IC50 (GTPase KRas) is reported as 9.6 µM.

In the case of `CC(C)C[C@H](NC(=O)[C@@H]1COCc2cnnn2CCC(=O)NCC(=O)N2CCC[C@H]2C(=O)N[C@@H](Cc2cccc3ccccc23)C(=O)N1)C(N)=O`, the IC50 [2] is reported as 3.6 µM and the IC50 (GTPase KRas) is reported as 7 µM.

With `C=C1/C=C/CCCC(=O)N[C@@H](C)C(=O)N2CCC[C@H]2C(=O)N[C@@H]([C@@H](C)CC)C(=O)N[C@H](C(=O)N[C@@H](CC(C)C)C(N)=O)CSC1` the inhibition [1] was 28% and the IC50 (GTPase KRas) was > 100 µM.

For `CC[C@H](C)[C@@H]1NC(=O)[C@@H]2CCCN2C(=O)CNC(=O)CCCCn2nncc2COC[C@@H](C(=O)N[C@@H](CC(C)C)C(N)=O)NC1=O`, the inhibition [1] was 48% and the IC50 (GTPase KRas) was 100 µM.

With `CC[C@H](C)[C@@H]1NC(=O)[C@@H]2CCCN2C(=O)[C@H](C)NC(=O)c2ccccc2/C=C/COC[C@@H](C(=O)N[C@@H](CC(C)C)C(N)=O)NC1=O` the inhibition [1] was 25% and the IC50 (GTPase KRas) was > 100 µM.

For `CC[C@H](C)[C@@H]1NC(=O)[C@@H]2CCCN2C(=O)[C@H](Cc2ccccc2)NC(=O)CCCCn2nncc2COC[C@@H](C(=O)N[C@@H](CC(C)C)C(N)=O)NC1=O`, the inhibition [1] was 38% and the IC50 (GTPase KRas) was > 100 µM.

`CC(C)C[C@H](NC(=O)[C@@H]1COCc2cnnn2CCCCC(=O)NCC(=O)N2CCOC[C@H]2C(=O)N[C@@H](Cc2cccc3ccccc23)C(=O)N1)C(N)=O` showed an IC50 [2] of 5 µM and an IC50 (GTPase KRas) of 6.5 µM.

With `CC[C@H](C)[C@@H]1NC(=O)[C@@H]2CCCN2C(=O)CNC(=O)CCCc2cn(nn2)CC[C@@H](C(=O)N[C@@H](CC(C)C)C(N)=O)NC1=O` the inhibition [1] was 6% and the IC50 (GTPase KRas) was > 100 µM.

In the case of `CC[C@H](C)[C@@H]1NC(=O)[C@@H]2CCCN2C(=O)[C@H](Cc2ccc(O)cc2)NC(=O)CCCCn2cc(nn2)COC[C@@H](C(=O)N[C@@H](CC(C)C)C(N)=O)NC1=O`, the inhibition [1] is reported as 22%, the IC50 [2] is reported as > 30 µM and the IC50 (GTPase KRas) is reported as > 100 µM.

With `CC[C@H](C)[C@@H]1NC(=O)[C@@H]2CCCN2C(=O)CNC(=O)CCCC#CC#CCOC[C@@H](C(=O)N[C@@H](CC(C)C)C(N)=O)NC1=O` the inhibition [1] was 0% and the IC50 (GTPase KRas) was > 100 µM.

With `CC(C)C[C@H](NC(=O)[C@H]1CSCc2cnnn2CCCCC(=O)NCC(=O)N2CCC[C@H]2C(=O)N[C@@H](Cc2cccc3ccccc23)C(=O)N1)C(N)=O` the IC50 [2] was 2.5 µM and the IC50 (GTPase KRas) was 11 µM.

For `CC[C@H](C)[C@@H]1NC(=O)[C@@H]2CCCN2C(=O)[C@H](C)NC(=O)CCCCn2nncc2COC[C@@H](C(=O)N[C@@H](CC(C)C)C(N)=O)NC1=O`, the inhibition [1] was 30% and the IC50 (GTPase KRas) was > 100 µM.

For `CC[C@H](C)[C@@H]1NC(=O)[C@@H]2CCCN2C(=O)[C@H](Cc2ccccc2)NC(=O)CCCc2cn(nn2)C[C@@H](C(=O)N[C@@H](CC(C)C)C(N)=O)NC1=O`, the inhibition [1] was 8%, the IC50 [2] was > 30 µM and the IC50 (GTPase KRas) was > 100 µM.

For `C=C1/C=C/COC[C@@H](C(=O)N[C@@H](CC(C)C)C(N)=O)NC(=O)[C@H]([C@@H](C)CC)NC(=O)[C@@H]2CCCN2C(=O)CNC(=O)CC1`, the inhibition [1] was 21% and the IC50 (GTPase KRas) was > 100 µM.

With `CC(C)C[C@H](NC(=O)[C@@H]1COCc2cnnn2CCCCC(=O)NCC(=O)N2C[C@H](O)C[C@H]2C(=O)N[C@@H](Cc2cccc3ccccc23)C(=O)N1)C(N)=O` the IC50 (GTPase KRas) was 95 µM.

Compound `C=C1/C=C/COC[C@@H](C(=O)N[C@@H](CC(C)C)C(N)=O)NC(=O)[C@H]([C@@H](C)CC)NC(=O)[C@@H]2CCCN2C(=O)CNC(=O)C1` has an inhibition [1] of 46% and an IC50 (GTPase KRas) of 98 µM.

With `CC(C)C[C@H](NC(=O)[C@@H]1COCc2cnnn2CCCCC(=O)NCC(=O)N2CCC[C@H]2C(=O)N[C@@H](Cc2cccc3ccccc23)C(=O)N1)C(N)=O` the IC50 [2] was 2.4 µM and the IC50 (GTPase KRas) was 7.1 µM.
